The nature of data set [1]: Degreasing of steel sheets with an impregnated cotton pad. The note with it: for OVERALL GRADE (/10): from the number of the 9 fatty substances with grade 3. Set-up: key to degreasing grade: Grade=1: visible residual presence of a thin greasy film; Grade=2: visible residual presence of small greasy spots; Grade=3: visible absence of fatty substance (degreased sheet). From the text: Steel sheets covered with a thin, uniform film of different greases, lubricants or straight cutting oils commonly used in the metal-processing industry are degreased.
The performances of these 7 compositions are compared for 9 commercial greases and oils of different chemical mixtures.
For the purpose of the evaluation, a cotton pad is impregnated with the test composition and then this cotton pad is brought into contact with a thin and uniform film of fatty substances deposited on the surface of a steel sheet. This operation is repeated twice. The steel sheet is subsequently rinsed with cold water, so as to remove the solvent. The degreasing effect is subsequently graded as follows:
Grade=1: visible residual presence of a thin greasy film,
Grade=2: visible residual presence of small greasy spots,
Grade=3: visible absence of fatty substance (degreased sheet).
For each of Compositions 1 to 7, an “overall grade” is assigned to the function of the number of fatty substances for which the composition in question has not made it possible to achieve the grade of 3. This overall grade, with a maximum value of 10, is assigned in the following way:
For each Composition 1 to 7, the grade obtained a) for the specific degreasing of each of the fatty substances FS1 to FS9 deposited (grade from 1 to 3) and b) overall, as degreasing composition (grades from 6/10 to 10/10) is thus taken up in the table below.

Data set [2] is described as follows: Flammability / flashpoint of the compositions. It is filed as physicochemical.
The conditions of data set [3]: compulsory labelings R51/R53; cited from earlier work.
Data set [4] can be described thus: Risks of harmfulness for the aquatic environment / bioaccumulation. More on the design: key: −=harmful demonstrated; +=slight risk; ++=very slight risks. The source says: For each of Compositions A to E, the characteristics of odor (“ODOR”), of stability at alkaline pH, i.e. at a pH of 9 (“STAB.”) and of risks of harmfulness in terms of protection of the aquatic environment/bioaccumulation (“BIO.”) are taken up in the table below according to the following notation: […]

The nature of data set [5]: Aerobic inherent biodegradability, OECD 302 B (Zahn-Wellens EMPA Test). The conditions noted are these: at 28 days. The source says:
The biodegradability is here measured according to the process, hereinafter denoted “OECD 302 B”, recommended by the OECD under the following number and following title: No. 302 B—Inherent Biodegradability: Zahn—Wellens EMPA Test.

Data set [6] has as its system man. The conditions noted are these: previously described advantages; cited from earlier work.
Data set [7] deals with aquatic organisms, such as bacteria, freshwater algae, daphnia and freshwater fish. The experiment in a line: Toxicity for aquatic organisms.
A short description of data set [8]: Ready biodegradability, OECD No. 301 A (DOC Die-away Test). The conditions noted are these: at 28 days.
Where [9] appears, read: FS 2 = mixture of petroleum mineral oils.
Setting [10] is: FS 4 = molybdenum disulfide grease.
Setting [11] is: FS 5 = mixture of mineral oil, of paraffinic hydrocarbons and of graphite.
[12] abbreviates: FS 6 = polydimethylsiloxane oil.
Setting [13] is: FS 7 = mutifraction oily mixture.
The mark [14] stands for this setting: FS 8 = biostable polyvalent microemulsion.
Where [15] appears, read: FS 9 = nonchlorinated special lubricant.

In the case of `C=C(C)[C@H]1CC=C(C)CC1` [Composition 3, dipentene], the degreasing grade in data set [1] (FS 1 = paraffinic mineral oil), in data set [1] (setting [9]), in data set [1] (FS 3 = food-grade mineral oil), in data set [1] (setting [10]), in data set [1] (setting [11]) and in data set [1] (setting [12]) was 3 throughout. Also, the results for the degreasing grade in data set [1] (setting [13]), in data set [1] (setting [14]) and in data set [1] (setting [15]) were 3, 2 and 3, respectively. In addition, the “OVERALL GRADE (/10)” value in data set [1] is 9 /10. In data set [2], this compound registered a flashpoint of 48 °C.

`ClC=C(Cl)Cl` [Composition 1, trichloroethylene]: the degreasing grade in data set [1] (FS 1 = paraffinic mineral oil), in data set [1] (setting [9]), in data set [1] (FS 3 = food-grade mineral oil), in data set [1] (setting [10]), in data set [1] (setting [11]) and in data set [1] (setting [12]) was 3 throughout. Moreover, the degreasing grade in data set [1] (setting [13]), in data set [1] (setting [14]) and in data set [1] (setting [15]) was 3 throughout. Moreover, in data set [1], the “OVERALL GRADE (/10)” value was 10 /10. Besides, the “toxicity for the environment” value in data set [3] is given as “a certain toxicity”.

On to “2,2,4-trimethyl-1,3-pentanediol monoisobutyrate [Composition A]”, for which the “BIO. (risks of harmfulness, protection of the aquatic environment/bioaccumulation)” value in data set [4] was “−”.

`CCOC(=O)C(C)O` (stereo not shown) [Composition 4, ethyl lactate]: the degreasing grade stood at 3 in data set [1] (FS 1 = paraffinic mineral oil); 3 in data set [1] (setting [9]); 3 in data set [1] (FS 3 = food-grade mineral oil); 3 in data set [1] (setting [10]); 2 in data set [1] (setting [11]); 3 in data set [1] (setting [12]). Also, the degreasing grade is recorded as 3 in data set [1] (setting [13]), 2 in data set [1] (setting [14]) and 3 in data set [1] (setting [15]). In addition, the “OVERALL GRADE (/10)” value in data set [1] is 8 /10. Further, the flashpoint in data set [2] is 46 °C.

Turning to `ClCCl` [Composition 2, dichloromethane], the degreasing grade in data set [1] (FS 1 = paraffinic mineral oil), in data set [1] (setting [9]), in data set [1] (FS 3 = food-grade mineral oil), in data set [1] (setting [10]), in data set [1] (setting [11]) and in data set [1] (setting [12]) was 3 in each case. Also, the degreasing grade in data set [1] (setting [13]), in data set [1] (setting [14]) and in data set [1] (setting [15]) was 3 in each case. Also, the “OVERALL GRADE (/10)” value in data set [1] is 10 /10. The “toxicity for the environment” value in data set [3] is “a certain toxicity”.

Regarding `CO[C@H]1CO[C@H]2[C@@H]1OC[C@H]2OC` [Composition 5, dimethyl isosorbide], the degreasing grade was determined as 3 in data set [1] (FS 1 = paraffinic mineral oil); 3 in data set [1] (setting [9]); 2 in data set [1] (FS 3 = food-grade mineral oil); 3 in data set [1] (setting [10]); 2 in data set [1] (setting [11]); 2 in data set [1] (setting [12]). Besides, the values for the degreasing grade in data set [1] (setting [13]), in data set [1] (setting [14]) and in data set [1] (setting [15]) were 3, 2 and 3, respectively. Moreover, the “OVERALL GRADE (/10)” value in data set [1] is given as 6 /10. In addition, the “BIO. (risks of harmfulness, protection of the aquatic environment/bioaccumulation)” value in data set [4] was “++”. The same compound gave a flashpoint in data set [2] of 120 °C. In data set [5], the aerobic inherent biodegradability was ~36%. Further, the “irritant nature and toxicity to man” value in data set [6] is “absence of irritant nature and of toxicity to man”. In addition, the “toxicity for aquatic organisms” value in data set [7] is reported as “absence of toxicity for aquatic organisms”. Also, the ready biodegradability in data set [8] is ~25%.

The values are drawn from patent US8080115B2, “Method for the surface treatment of a metallic or fibrous material” (priority 2005, dated 2011).
